Source: patent US12280132B2, “Skin care composition” (The Procter & Gamble Company, priority 2021, dated 2025)

Tests used:
[1] = HCA Crystallization, freeze/thaw temperature cycling; format: physicochemical; details: Table 7; hydrotrope at stated level in 0.5% 4-HCA composition, formula pH 3.8
Description: This method provides a way to determine HCA solubility in a composition by observing HCA crystals in situ. The method involves cycling the temperature of a test sample between freezing and thawing to imitate environmental conditions experienced by a skin care composition at an accelerated rate. This type of accelerated aging is commonly used in cosmetic product stability testing. HCA crystals can be detected using conventional means such as visual observation and microscopy.
A bulk sample of at least 10 g (e.g., 20 g-60 g) of the composition to be tested is placed in a suitable container that enables visual observation of the test sample (e.g., transparent plastic or glass jar). The test sample is subjected to 1 month of freeze/thaw temperature cycling to simulate environmental conditions that a skin care product may experience during shipping and storage. This is sometimes referred to as accelerated aging. The temperature cycling involves a 1-week freeze cycle at −7° C., followed by a 1-week thaw cycle at 25° C., and then repeating this freeze/cycle for a total temperature cycling time of 1 month.
Upon completion of the accelerated aging process (i.e., 1 month of temperature cycling), transparent test samples are visually inspected in-situ in the transparent container to determine if HCA crystallization/precipitation occurred. For opaque and translucent samples, the entire test sample is removed from the container and transferred to a suitable transparent substrate (e.g., plastic film or glass plate) and formed into a thin film of no more than 1 mm thickness. The sample is covered with a second transparent substrate to inhibit the loss of volatile ingredients during inspection. A light source (e.g., LED lamp or the like) is used to backlight the sample to aid in visual inspection. HCA crystals will generally appear as a precipitate in the composition visible to the naked eye when observed by someone with 20/20 vision from 45 cm away. Any precipitate identified during visual observation may be further evaluated using a microscope capable of providing fluorescent birefringence observation with cross-polarized light to identify anisotropic crystals. Any anisotropic crystal that has a longest dimension of greater than 0.1 mm is identified as an HCA crystal and the total number of HCA crystals is recorded. A test sample that contains no more than 1 HCA crystal is considered to be “free of HCA crystals” and is recorded as a “pass.” A test sample that contains more than 1 HCA crystal, is recorded as a “fail.”
While it is desirable to formulate HCA containing compositions at lower pH to reduce 4-VP production and yellowing, the solubility of the HCA at low pH may not be sufficient for it to be added at levels needed for an effective skin care active.
The test compositions shown in Table 8 were subjected to 2 freeze/thaw cycles at −7C/25C for 1 week/1 week, totaling one month of temperature cycling.
The test compositions are shown below in Table 9. The test compositions were subjected to 2 freeze/thaw cycles at −7C/25C and 1 week/1 week, followed by a 90-day rest period at 25° C. After completion of the incubation period, the compositions were examined for the presence of HCA crystals, as described above.

[2] = Color method: change in yellowness (Δb*) after accelerated aging; format: physicochemical
Description: This method can be used to determine the change in color of a product, material, or target portion of skin. A spectrophotometer (e.g., Spectrophotometer CM-3600A, Konica Minolta, Japan, or equivalent) is used to measure spectrometric data for CIE (International Commission on Illumination) specified illuminating and viewing conditions, and compute the associated tristimulus values, XYZ, based on CIE observer and a CIE illuminant standards. The ASTM standard for obtaining spectrometric data for Object-Color Evaluation is ASTM E1164-12(2017)el with the values and procedures for computing CIE tristimulus values from spectrometric data outlined in ASTM […]. The CIELAB color scale, also referred to as L*a*b*, are calculated from the tristimulus values as defined in ASTM […]. The L* denotes the sample's perceptual lightness. […] Portion samples are evaluated using a 10 mm path length in a plastic cell (e.g., CM-A131, Konica Minolta, Japan or equivalent), reflectance measurement, a 25.4 mm aperture opening at the specimen surface, and specular component excluded conditions with a standard white background. […] Synergy factor is calculated by dividing the observed value by the expected value. […]

[3] = Table 7, hydrotropes; cited from earlier work

Row | Compound | Crystallization [1] | enhancement of effect of the oxygen quenching reducing agent at low pH vs. neutral pH ([2]; 3M40C) [%] | enhancement of effect of the oxygen quenching reducing agent at low pH vs. neutral pH ([2]; 3W50C (printed 3WSOC)) [%] | pKA [3]
1 | O=C(O)c1ccc(O)cc1O [2,4-Dihydroxybenzoic Acid] | Pass (A test sample that contains no more than 1 HCA crystal is considered to be “free of HCA crystals” and is recorded as a “pass.”) |  |  | 
2 | O=S([O-])S(=O)(=O)[O-].[Na+].[Na+] [sodium metabisulfite] |  | 240 | 20 | 
3 | O=C(O)c1cccc(O)c1O [2,3-Dihydroxybenzoic acid] | Pass (A test sample that contains no more than 1 HCA crystal is considered to be “free of HCA crystals” and is recorded as a “pass.”) |  |  | 2.56
4 | O=C([O-])C=Cc1ccccc1.[Na+] [Sodium Cinnamate, reference compound] | Fail (A test sample that contains more than 1 HCA crystal, is recorded as a “fail.”) |  |  | 
5 | O=C(O)c1ccc(O)c(O)c1 [3,4-Dihydroxybenzoic Acid, reference compound] | Fail (A test sample that contains more than 1 HCA crystal, is recorded as a “fail.”) |  |  | 4.16
6 | O=C([O-])c1ccccc1O.[Na+] [Sodium salicylate] | Pass (A test sample that contains no more than 1 HCA crystal is considered to be “free of HCA crystals” and is recorded as a “pass.”) |  |  | 
7 | COc1cccc(C(=O)O)c1O [3-Methoxysalicylic acid] | Pass (A test sample that contains no more than 1 HCA crystal is considered to be “free of HCA crystals” and is recorded as a “pass.”) |  |  | 2.55
